Reference: PubChem BioAssay (NCI)
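Dose response: 5 concentrations. Exposure: 48 h. Format: 96-well plates. Endpoint: linear interpolation; highest concentration if not reached. Abbreviation: GI50, concentration required for 50% inhibition of growth. The concentration for full growth arrest is given as TGI.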

Key:
Assay in all cases: NCI anticancer screen, dose series, 48 h
[1] = test system: A549 NSCLC
[2] = test system: SF-268 CNS
[3] = test system: SF-539 CNS
[4] = test system: ACHN renal
[5] = test system: EKVX NSCLC
[6] = test system: HT29 colon
[7] = test system: CCRF-CEM leukemia
[8] = test system: NCI-H522 lung
[9] = test system: HOP-62 NSCLC
[10] = test system: NCI/ADR-RES ovarian
[11] = test system: UACC-62 melanoma
[12] = test system: DU-145 prostate
[13] = test system: MOLT-4 leukemia
[14] = test system: NCI-H23 lung
[15] = test system: K-562 leukemia
[16] = test system: HCT-116 colon
[17] = test system: HOP-92 NSCLC
[18] = test system: SW-620 colon
[19] = test system: COLO 205 colon
[20] = test system: SK-MEL-5 melanoma
[21] = test system: HCT-15 colon
[22] = test system: SR leukemia
[23] = test system: IGROV1 ovarian
[24] = test system: NCI-H460 lung
[25] = test system: RPMI-8226 leukemia
[26] = test system: OVCAR-4 ovarian
[27] = test system: SNB-75 CNS
[28] = test system: OVCAR-5 ovarian
[29] = test system: RXF 393 renal
[30] = test system: T-47D breast
[31] = test system: M14 melanoma
[32] = test system: A498 renal
[33] = test system: PC-3 prostate
[34] = test system: OVCAR-8 ovarian
[35] = test system: BT-549 breast
[36] = test system: HS 578T breast
[37] = test system: OVCAR-3 ovarian
[38] = test system: SF-295 CNS
[39] = test system: TK-10 renal
[40] = test system: KM12 colon
[41] = test system: CAKI-1 renal
[42] = test system: SN12C renal
[43] = test system: SNB-19 CNS
[44] = test system: NCI-H226 lung
[45] = test system: SK-MEL-28 melanoma
[46] = test system: 786-0 renal
[47] = test system: UACC-257 melanoma
[48] = test system: MCF7 breast
[49] = test system: U251 CNS
[50] = test system: HCC-2998 colon
[51] = test system: UO-31 renal
[52] = test system: MALME-3M melanoma
[53] = test system: MDA-MB-231 breast
[54] = test system: HL-60(TB) leukemia
[55] = test system: MDA-MB-435
[56] = test system: LOX IMVI melanoma
[57] = test system: SK-OV-3 ovarian
[58] = test system: SK-MEL-2 melanoma

O=C(/C=C/c1ccc(O)c(O)c1)NCc1c[nH]c2ccccc12
GI50 [1]: > 100 µM
TGI [1]: > 100 µM
GI50 [2]: 63.8 µM
TGI [2]: > 100 µM
GI50 [3]: 38.9 µM
TGI [3]: > 100 µM
GI50 [4]: 45.8 µM
TGI [4]: > 100 µM
GI50 [5]: 41.5 µM
TGI [5]: > 100 µM
GI50 [6]: 47.2 µM
TGI [6]: > 100 µM
GI50 [7]: 48.4 µM
TGI [7]: > 100 µM
GI50 [8]: 44.9 µM
TGI [8]: > 100 µM
GI50 [9]: 44.7 µM
TGI [9]: > 100 µM
GI50 [10]: > 100 µM
TGI [10]: > 100 µM
GI50 [11]: 80.6 µM
TGI [11]: > 100 µM
GI50 [12]: 78.3 µM
TGI [12]: > 100 µM
GI50 [13]: 25.8 µM
TGI [13]: > 100 µM
GI50 [14]: 85.8 µM
TGI [14]: > 100 µM
GI50 [15]: 68.1 µM
TGI [15]: > 100 µM
GI50 [16]: 62.2 µM
TGI [16]: > 100 µM
GI50 [17]: > 100 µM
TGI [17]: > 100 µM
GI50 [18]: 58.6 µM
TGI [18]: > 100 µM
GI50 [19]: 49 µM
TGI [19]: > 100 µM
GI50 [20]: 32.9 µM
TGI [20]: > 100 µM
GI50 [21]: 44.2 µM
TGI [21]: > 100 µM
GI50 [22]: 10 µM
TGI [22]: 37 µM
GI50 [23]: 57.3 µM
TGI [23]: > 100 µM
GI50 [24]: 50.1 µM
TGI [24]: > 100 µM
GI50 [25]: 57.9 µM
TGI [25]: > 100 µM
GI50 [26]: > 100 µM
TGI [26]: > 100 µM
GI50 [27]: 82.4 µM
TGI [27]: > 100 µM
GI50 [28]: > 100 µM
TGI [28]: > 100 µM
GI50 [29]: > 100 µM
TGI [29]: > 100 µM
GI50 [30]: > 100 µM
TGI [30]: > 100 µM
GI50 [31]: 64.8 µM
TGI [31]: > 100 µM
GI50 [32]: 32.4 µM
TGI [32]: > 100 µM
GI50 [33]: 71.3 µM
TGI [33]: > 100 µM
GI50 [34]: 56.6 µM
TGI [34]: > 100 µM
GI50 [35]: 78.5 µM
TGI [35]: > 100 µM
GI50 [36]: 73.7 µM
TGI [36]: > 100 µM
GI50 [37]: 28.4 µM
TGI [37]: > 100 µM
GI50 [38]: 62.4 µM
TGI [38]: > 100 µM
GI50 [39]: 18.1 µM
TGI [39]: > 100 µM
GI50 [40]: 66.7 µM
TGI [40]: > 100 µM
GI50 [41]: 27.9 µM
TGI [41]: > 100 µM
GI50 [42]: 28.4 µM
TGI [42]: 84.7 µM
GI50 [43]: > 100 µM
TGI [43]: > 100 µM
GI50 [44]: 71.3 µM
TGI [44]: > 100 µM
GI50 [45]: 58.3 µM
TGI [45]: > 100 µM
GI50 [46]: 39.7 µM
TGI [46]: > 100 µM
GI50 [47]: > 100 µM
TGI [47]: > 100 µM
GI50 [48]: 70.3 µM
TGI [48]: > 100 µM
GI50 [49]: 74 µM
TGI [49]: > 100 µM
GI50 [50]: 35.7 µM
TGI [50]: 76.1 µM
GI50 [51]: 36.9 µM
TGI [51]: > 100 µM
GI50 [52]: 29.2 µM
TGI [52]: > 100 µM
GI50 [53]: 75.9 µM
TGI [53]: > 100 µM
GI50 [54]: 70 µM
TGI [54]: > 100 µM
GI50 [55]: 41.9 µM
TGI [55]: > 100 µM
GI50 [56]: 60 µM
TGI [56]: > 100 µM

COc1cccc(CN(C)c2ccc(CO)c(Cl)c2)c1
GI50 [1]: 4.09 µM
TGI [1]: 40.1 µM
GI50 [2]: 44.5 µM
TGI [2]: > 100 µM
GI50 [3]: 48 µM
TGI [3]: > 100 µM
GI50 [4]: 42.1 µM
TGI [4]: > 100 µM
GI50 [5]: 24.8 µM
TGI [5]: 97.9 µM
GI50 [6]: 5.03 µM
TGI [6]: > 100 µM
GI50 [7]: 39.3 µM
TGI [7]: > 100 µM
GI50 [8]: 22 µM
TGI [8]: > 74.3 µM
GI50 [9]: 5.33 µM
TGI [9]: > 87.7 µM
GI50 [10]: 19.1 µM
TGI [10]: 67 µM
GI50 [11]: 0.19 µM
TGI [11]: 1.63 µM
GI50 [12]: 37.1 µM
TGI [12]: > 100 µM
GI50 [13]: 33.1 µM
TGI [13]: > 100 µM
GI50 [14]: 18.6 µM
TGI [14]: > 100 µM
GI50 [15]: 7.56 µM
TGI [15]: > 100 µM
GI50 [16]: 0.243 µM
TGI [16]: 14.1 µM
GI50 [17]: 6.97 µM
TGI [17]: 56.9 µM
GI50 [18]: 4.34 µM
TGI [18]: > 100 µM
GI50 [19]: 3.18 µM
TGI [19]: 11.7 µM
GI50 [20]: 7.5 µM
TGI [20]: 21.4 µM
GI50 [21]: 24 µM
TGI [21]: > 100 µM
GI50 [22]: 41.8 µM
TGI [22]: > 100 µM
GI50 [23]: 0.216 µM
TGI [23]: 2.6 µM
GI50 [24]: 0.97 µM
TGI [24]: 21 µM
GI50 [25]: 12.8 µM
TGI [25]: > 78.3 µM
GI50 [26]: 1.19 µM
TGI [26]: 29.4 µM
GI50 [27]: 22.2 µM
TGI [27]: 98.4 µM
GI50 [28]: 0.322 µM
TGI [28]: 1.91 µM
GI50 [29]: 11.2 µM
TGI [29]: > 62.2 µM
GI50 [30]: 0.298 µM
TGI [30]: 2.86 µM
GI50 [31]: 25.2 µM
TGI [31]: > 100 µM
GI50 [32]: 0.0311 µM
TGI [32]: 0.154 µM
GI50 [33]: 30.6 µM
TGI [33]: > 100 µM
GI50 [34]: 20.7 µM
TGI [34]: > 96.5 µM
GI50 [35]: 19.8 µM
TGI [35]: 80 µM
GI50 [36]: 43.6 µM
TGI [36]: > 100 µM
GI50 [37]: 2.31 µM
TGI [37]: 10.6 µM
GI50 [38]: 3.71 µM
TGI [38]: > 66.2 µM
GI50 [40]: 29.8 µM
TGI [40]: > 100 µM
GI50 [41]: 2.82 µM
TGI [41]: > 59.3 µM
GI50 [42]: 24.7 µM
TGI [42]: > 100 µM
GI50 [43]: 35.2 µM
TGI [43]: > 100 µM
GI50 [57]: 11.3 µM
TGI [57]: > 60.7 µM
GI50 [44]: 0.0588 µM
TGI [44]: 0.202 µM
GI50 [45]: 24.2 µM
TGI [45]: > 100 µM
GI50 [46]: 13.9 µM
TGI [46]: > 67.6 µM
GI50 [47]: 0.216 µM
TGI [47]: 0.679 µM
GI50 [48]: 0.504 µM
TGI [48]: > 43.7 µM
GI50 [49]: 3.32 µM
TGI [49]: > 64.1 µM
GI50 [58]: 7.78 µM
TGI [58]: 42.5 µM
GI50 [50]: 16.9 µM
TGI [50]: 74.8 µM
GI50 [51]: 14.5 µM
TGI [51]: > 83.7 µM
GI50 [52]: 25.9 µM
TGI [52]: > 89.7 µM
GI50 [53]: 31 µM
TGI [53]: > 100 µM
GI50 [54]: 26 µM
TGI [54]: > 87.1 µM
GI50 [55]: 19.7 µM
TGI [55]: 66.2 µM
GI50 [56]: 34.7 µM
TGI [56]: > 100 µM
